Each structure is given as a SMILES string. Counter-ions that a name gives are not always drawn.

The values below come from patent US9802917B2, “Particles of N-(5-cyano-4-((2-methoxyethyl)amino)pyridin-2-yl)-7-formyl-6-((4-methyl-2-oxopiperazin-1-yl)methyl)-3,4-dihydro-1,8-naphthyridine-1(2H)-carboxamide” (Novartis AG, priority 2015, dated 2017).

Series [1] in a line: Basic flow energy measurement (FT4 powder rheometer). Format: physicochemical. The following applies: 25 mm vessel, 23.5 mm blade. On the procedure:
Basic flow energy (BFE) is the energy required to establish a particular flow pattern in a conditioned, precise volume of powder. This flow pattern is a downward anti-clockwise motion of the blade, generating a compressive, relatively high stress flow mode in the powder. The BFE is calculated from the work done in moving the blade through the powder from the top of the vessel to the bottom, i.e. during the downward traverse.
In the present instance, the basic flow energy was measured using a FT4 powder rheometer from Freeman Technology under the following conditions: vessel size: 25 mm; standard Program Name: 25 mm_1C_Split_1 T; Starting accessory: 23.5 mm blade; Vessel: 25 mm×25 mL Split Vessel. The results were plotted in FIG. 9.

The test system of series [2] is HuH-7 hepatocellular carcinoma cells. The experiment in a line: Methylene blue staining proliferation assay (MBS). It counts as cell-based. The following applies: Homo sapiens, HuH-7 cells, 72 hours, read-out: HUH7 proliferation (nM) MBS. On the procedure:
Using a liquid handling device (Velocity 11 Bravo, Agilent), serial 3-fold dilutions of compounds were prepared in DMSO, prediluted in growth medium, followed by transfer of 10 uL/well to the cell plates. […] For data analysis, the assay background was determined in wells containing medium and lysis buffer, but no cells, and the corresponding value subtracted from all data points. […] Compound concentrations leading to half-maximal signal inhibition ([…]) were determined by standard four parametric curve fitting (XLfit 5.4, IDBS). […] Optical density was measured at A650 nm. […]

Series [3] shares this test system. The experiment in a line: CellTiter Glo (CTG) proliferation/viability assay. It counts as cell-based. The following applies: Homo sapiens, 72 h, HuH-7 cells, 3 days, GI50, read-out: HUH7 proliferation (nM) CTG. The procedure: CellTiter Glo (CTG) Assay: […] Compound-mediated suppression of cell proliferation/viability is assessed by quantification of cellular ATP levels using the CellTiter-Glo (CTG) reagent (Promega, Cat# G7573). Briefly, cells are seeded at 3'000 cells/well/80 μl fresh medium into tissue-culture-treated 96-well plates (Costar Cat#3904), followed by addition of 20 μl medium containing compound dilutions at 5-fold their final intended concentration. Dose-response effects are assessed by 3-fold serial dilutions of the test compound, starting at 10 μM. Following incubation of the cells for 3 days at 37° C. and 5% CO2, the effect of inhibitors on cell viability is quantified following addition of 50 μl CTG and luminescence measurement (integration time: 500 ms) as per vendor manual, using a correspondingly equipped multi-mode plate reader ([…], TECAN, Switzerland). For data analysis, the assay background value determined in wells containing medium, but no cells, is subtracted from all data points. To enable differentiation of cytotoxic from cytostatic compounds, the number of viable cells is assessed relative to that observed at the time of compound addition using a separate cell plate (day 0). […] Compound concentrations leading to half-maximal growth inhibition (GI50) are determined using standard four parameter curve fitting (XLfit 5.2, IDBS, UK).

A short description of series [4]: Compressibility measurement (FT-4 powder rheometer). It counts as physicochemical. As to conditions: measured at 15 kPa normal stress. The text has this:
Compressibility is a measure of how density changes as a function of applied normal stress. By definition, compressibility is the percent change in volume after compression (%). The measurements were made using a FT-4 powder rheometer from Freeman technology. N-(5-cyano-4-((2-methoxyethyl)amino)pyridin-2-yl)-7-formyl-6-((4-methyl-2-oxopiperazin-1-yl)methyl)-3,4-dihydro-1,8-naphthyridine-1(2H)-carboxamide particles obtained by the process of the present invention and particles obtained by the process described in PCT/IB2014/065585 were placed in a vessel and a vented piston was used to compress the particles. The vented piston is designed such that the compression face is constructed from a woven stainless steel mesh and allows the entrained air in the powder to escape uniformly across the surface of the powder bed. A normal stress was applied in 8 sequential compression steps beginning at 0.5 kPa and ending at 15 kPa. In each step, the normal stress was held constant for 60 seconds and the compressibility was automatically calculated as a percentage change in volume. The results were plotted in FIG. 10. The compressibility percentage measured at 15 kPa was 54.14% and 54.63% for particles of the present invention. For the particles obtained by the process described in PCT/IB2014/065585, the compressibility percentage measured at 15 kPa was 49.93%.

Series [5] in a line: Wall friction angle measurement (FT-4 powder rheometer, stainless steel). Format: physicochemical. The following applies: 316 Stainless Steel discs, 1.2 microns average roughness. The text has this:
The wall friction test method has been developed to assess the interaction between the drug substance and stainless steel. The apparatus used is a FT-4 powder rheometer from Freeman technology.
N-(5-cyano-4-((2-methoxyethyl)amino)pyridin-2-yl)-7-formyl-6-((4-methyl-2-oxopiperazin-1-yl)methyl)-3,4-dihydro-1,8-naphthyridine-1(2H)-carboxamide particles obtained by the process of the present invention and particles obtained by the process described in PCT/IB2014/065585 were placed in a vessel containing the sample and a wall friction head to induce both vertical and rotational stresses. The powder sample is prepared by conditioning and then pre-consolidation using the standard FT4 blade and vented piston.
The wall friction head equipped with 1.2 microns average roughness of 316 Stainless Steel discs moves downwards to the surface of the sample and induces a normal stress as the disc contacts the top of the sample. The head continues to move downwards until the required normal stress is established. […] The torque required to maintain this rotational is measured which enables a “steady-state” shear stress to be calculated. […] A series of shear stress values is measured for a range of target applied stresses. […] The wall friction angle is then calculated by drawing a best fit line through the data points on the graph, and measuring the angle subtended between this best fit line and the horizontal. […]

A short description of series [6]: Laser diffraction particle size measurement of particles of reference example 1 (Example 4). The following applies: laser light diffraction, after 240 seconds sonication, FIG. 7. Format: physicochemical. The source says:
For the measurement, a Sympatec HELOS device with a focal length of 100 mm from Sympatec GmbH, Germany, equipped with a wet dispersion device Cuvette from Sympatec GmbH, Germany was used. The test substance was dispersed in white spirit, Brenntag Schweizerhall AG, Switzerland (catalog number 12200-150) using a dispersing aid (e.g. Statsafe™ 6000, INNOSPEC Limited, ca. 1% in the white spirit).
The particles were mixed intensively, e.g. on a vortex mixer, in order to wet the substance thoroughly and to form a smooth and homogeneous paste. The paste was diluted with the white spirit to a final volume of several milliliters and the stock dispersion was mixed again.
The test dispersion was prepared by diluting of the stock dispersion with white spirit for an appropriate optical concentration and the cumulative volume distribution was determined using a laser light diffraction instrument in accordance with the instruction manual. Measurements were made before sonication and after sonication for up to 600 seconds. The parameters were set as follows: 50% amplitude at the ultrasonication device USGD-100 from Telsonic AG, and a measuring duration of about 20 seconds. The measurement was carried out twice.
The particle sizes at the undersize values of 10%, 50% and 90% (x10, x50, x90) were evaluated from the cumulative volume distribution after 240 seconds sonication. This was determined to be representative of the primary particle sizes.

As for `COCCNc1cc(NC(=O)N2CCCc3cc(CN4CCN(C)CC4=O)c(C=O)nc32)ncc1C#N` [Example 1, N-(5-cyano-4-((2-methoxyethyl)amino)pyridin-2-yl)-7-formyl-6-((4-methyl-2-oxopiperazin-1-yl)methyl)-3,4-dihydro-1,8-naphthyridine-1(2H)-carboxamide in citric acid salt form 1:1], in series [1], the basic flow energy amounted to 65.07 mJ. For the same compound, the IC50 in series [2] was determined as 12 nM; in series [3], 60.9 nM.
`COCCNc1cc(NC(=O)N2CCCc3cc(CN4CCN(C)CC4=O)c(C=O)nc32)ncc1C#N.O=C(O)CC(O)(CC(=O)O)C(=O)O` [Example 1a, N-(5-cyano-4-((2-methoxyethyl)amino)pyridin-2-yl)-7-formyl-6-((4-methyl-2-oxopiperazin-1-yl)methyl)-3,4-dihydro-1,8-naphthyridine-1(2H)-carboxamide in citric acid form (1:1)] showed a basic flow energy in series [1] of 39.17 mJ.
Turning to `COCCNc1cc(NC(=O)N2CCCc3cc(CN4CCN(C)CC4=O)c(C=O)nc32)ncc1C#N.O=C(O)CC(O)(CC(=O)O)C(=O)O` [Reference Example 1, N-(5-cyano-4-((2-methoxyethyl)amino)pyridin-2-yl)-7-formyl-6-((4-methyl-2-oxopiperazin-1-yl)methyl)-3,4-dihydro-1,8-naphthyridine-1(2H)-carboxamide in citric acid form (1:1)], in series [1] (listed as particles obtained by the process described in PCT/IB2014/065585), the basic flow energy is 185.20 mJ. This compound registered a compressibility percentage in series [4] of 49.93%. Also, in series [5], the wall friction angle stood at 43.18 °. In addition, in series [6], the “median particle size (x50 or d50)” value is listed as “about 3 microns”, the “particle size x10 or d10” value is recorded as “about 1 micron” and the “particle size x90 or d90” value was “about 7 micron”.
